Laboratory results taken from patent US20210163976A1, “GENETICALLY ALTERED PLANTS EXPRESSING HETEROLOGOUS RECEPTORS THAT RECOGNIZE LIPO-CHITOOLIGOSACCHARIDES” (Aarhus Universitet, priority 2018, published 2021).
“Also recorded” adds a separate entry of the source.

Experiments:
[1] = molecular target: T1, Medicago truncatula NFP ectodomain (NFP-ECD, residues 28-246), wild type, SEQ ID NO: 1 (Medicago truncatula, UniProt Q0GXS4); assay: Microscale thermophoresis (MST) binding of NFP to carbohydrate ligands; settings: read-out: Dissociation constant (Kd)
T1 construct: The Medicago truncatula NFP ectodomain (residues 28-246); AcMNPV gp67 signal peptide (replaces native signal peptide 1-27) (N); hexa-histidine tag (C); made in house; host or cells: Sf9 cells (Spodoptera frugiperda), baculovirus
Protocol: (§1) Expression and purification of Medicago NFP ectodomain: The Medicago truncatula NFP ectodomain (residues 28-246) was codon-optimized for insect cell expression (Genscript, Piscataway, USA) and cloned into the pOET4 baculovirus transfer vector (Oxford Expression Technologies). The native NFP signal peptide (residues 1-27, predicted by SignalP 4.1) was replaced with the AcMNPV gp67 signal peptide to facilitate secretion and a hexa-histidine tag was added to the C-terminus. Point mutants of NFP were engineered using site-directed mutagenesis. Recombinant baculoviruses were produced in Sf9 cells (Spodoptera frugiperda) using the FlashBac Gold kit (Oxford Expression technologies) according to the manufacturer's instructions with Lipofectin (ThermoFisher Scientific) as a transfection reagent. Protein expression was performed as follows. Suspension-cultured Sf9 cells were maintained with shaking at 299 K in serum-free MAX-XP (BD-Biosciences, discontinued) or HyClone SFX (GE Healthcare) medium supplemented with 1% Pen-Strep (10000 U/ml, Life technologies) and 1% CD lipid concentrate (Gibco). Protein expression was induced by adding recombinant passage 3 virus once the Sf9 cells reached a cell density of 1.0*10^7^6 cells/ml. After 5-7 days of expression, medium supernatant containing NFP ectodomains was harvested by centrifugation. This was followed by an overnight dialysis step against 50 mM Tris-HCl pH 8, 200 mM NaCl at 277 K. The NFP ectodomain was enriched by two subsequent steps of Ni-IMAC purification (HisTrap excel/HisTrap HP, both GE Healthcare). For crystallography experiments, N-glycans were removed using the endoglycosidase PNGase F (1:15 (w/w), room temperature, overnight). As a final purification step, NFP ectodomain was purified by SEC on a Superdex 200 10/300 or HiLoad Superdex 200 16/600 (both GE Healthcare) in phosphate buffered saline at pH 7.2 supplemented to a total of 500 mM NaCl (for binding assays) or 50 mM Tris-HCl, 200 mM NaCl (for crystallography). NFP ectodomain elutes as a single, homogeneous peak corresponding to a monomer. […]

[2] = molecular target: T2, Hordeum vulgare RLK10 (HvRLK10; HvLysM-RLK10) ectodomain (residues 25-231), SEQ ID NO: 29 (construct SEQ ID NO: 28) (Hordeum vulgare, UniProt A0A8I6Y103); assay: BLI binding of barley HvRLK10 ectodomain; parameters: species or system Hordeum vulgare (barley); settings: FIGS. 13A, 13C-13D
T2 construct: full-length natural protein 633 aa beginning […]
T2 sequence (A0A8I6Y103 25-231): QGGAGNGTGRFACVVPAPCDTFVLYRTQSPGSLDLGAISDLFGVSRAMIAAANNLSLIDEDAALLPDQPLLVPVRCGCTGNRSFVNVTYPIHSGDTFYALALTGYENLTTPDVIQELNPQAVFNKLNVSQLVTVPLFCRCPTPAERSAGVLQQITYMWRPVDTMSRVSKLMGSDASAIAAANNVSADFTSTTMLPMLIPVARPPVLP

[3] = molecular target: T1, Medicago truncatula NFP ectodomain (NFP-ECD, residues 28-246), wild type, SEQ ID NO: 1; assay: Biolayer interferometry (BLI) binding of NFP / NFP-ECD to immobilized LCO and CO ligands; settings: further BLI assays, FIGS. 15B-15E, analyte 1.56-100 μM; listed as chitin
Protocol: (§2) Expression and purification of Medicago NFP ectodomain: The Medicago truncatula NFP ectodomain (residues 28-246) was codon-optimized for insect cell expression (Genscript, Piscataway, USA) and cloned into the pOET4 baculovirus transfer vector (Oxford Expression Technologies). The native NFP signal peptide (residues 1-27, predicted by SignalP 4.1) was replaced with the AcMNPV gp67 signal peptide to facilitate secretion and a hexa-histidine tag was added to the C-terminus. Point mutants of NFP were engineered using site-directed mutagenesis. Recombinant baculoviruses were produced in Sf9 cells (Spodoptera frugiperda) using the FlashBac Gold kit (Oxford Expression technologies) according to the manufacturer's instructions with Lipofectin (ThermoFisher Scientific) as a transfection reagent. Protein expression was performed as follows. Suspension-cultured Sf9 cells were maintained with shaking at 299 K in serum-free MAX-XP (BD-Biosciences, discontinued) or HyClone SFX (GE Healthcare) medium supplemented with 1% Pen-Strep (10000 U/ml, Life technologies) and 1% CD lipid concentrate (Gibco). Protein expression was induced by adding recombinant passage 3 virus once the Sf9 cells reached a cell density of 1.0*10^7^6 cells/ml. After 5-7 days of expression, medium supernatant containing NFP ectodomains was harvested by centrifugation. This was followed by an overnight dialysis step against 50 mM Tris-HCl pH 8, 200 mM NaCl at 277 K. The NFP ectodomain was enriched by two subsequent steps of Ni-IMAC purification (HisTrap excel/HisTrap HP, both GE Healthcare). For crystallography experiments, N-glycans were removed using the endoglycosidase PNGase F (1:15 (w/w), room temperature, overnight). As a final purification step, NFP ectodomain was purified by SEC on a Superdex 200 10/300 or HiLoad Superdex 200 16/600 (both GE Healthcare) in phosphate buffered saline at pH 7.2 supplemented to a total of 500 mM NaCl (for binding assays) or 50 mM Tris-HCl, 200 mM NaCl (for crystallography). NFP ectodomain elutes as a single, homogeneous peak corresponding to a monomer. Point mutated versions of NFP were expressed and purified following the same protocol.
(§3) Biolayer interferometry (BLI): Binding of NFP and mutated versions of NFP to ligands was measured on an Octet RED 96 system (Pall ForteBio). The ligands used were LCO-IV (from S. meliloti), LCO-V (from S. meliloti), LCO-V (from M. loti), and C06 (from M. loti). S. meliloti LCO consists of a tetrameric/pentameric N-acetylglucosamine backbone that is 0-sulfated on the reducing terminal residue, 0-acetylated on the non-reducing terminal residue, and mono-N-acylated by unsaturated C16 acyl groups. M. loti LCO is a pentameric N-acetylglucosamine with a cis-vaccenic acid and a carbamoyl group at the non-reducing terminal residue together with a 2,4-O-acetylfucose at the reducing terminal residue. Biotinylated ligand conjugates were immobilized on streptavidin biosensors (kinetic quality, Pall ForteBio) at a concentration of 125-250 nM for 5 minutes. The binding assays using the S. meliloti ligands (LCO-IV and LCO-V) were replicated seven times, while the binding assays using the M loti ligands (LCO-V and C06) were replicated six times. Data analysis was performed in GraphPad Prism 6 software (GraphPad Software, Inc.). Equilibrium dissociation constants derived from the steady-state were determined by applying a non-linear regression (one site, specific binding) to the response at equilibrium plotted against the protein concentration. Kinetic parameters were determined by non-linear regression (association followed by dissociation) on the subtracted data.
(§4) Mutated lipochitooligosaccharide (LCO) ligands: S. meliloti LCO consists of a tetrameric/pentameric N-acetylglucosamine backbone that is O-sulfated on the reducing terminal residue, O-acetylated on the non-reducing terminal residue, and mono-N-acylated by unsaturated C16 acyl groups. […]

HvRLK10 ectodomain = assay: BLI binding of HvRLK10 ectodomain to ligands; parameters: species or system H. vulgare; settings: FIGS. 13A, 13C, 13D
[4] = molecular target: T3, Medicago NFP ectodomain (NFP-ECD, WT) (Medicago truncatula, UniProt Q0GXS4); assay: Biolayer interferometry (BLI) binding of NFP-ECD to immobilized biotinylated ligands; settings: further BLI assays, FIGS. 15B-15E; listed as chitin
T3 construct: The Medicago truncatula NFP ectodomain (residues 28-246) was codon-optimized; AcMNPV gp67 signal peptide (replaces native signal peptide 1-27) (N); made in house; host or cells: Sf9 (Spodoptera frugiperda), baculovirus, secreted into medium
T3 sequence (Q0GXS4 28-246): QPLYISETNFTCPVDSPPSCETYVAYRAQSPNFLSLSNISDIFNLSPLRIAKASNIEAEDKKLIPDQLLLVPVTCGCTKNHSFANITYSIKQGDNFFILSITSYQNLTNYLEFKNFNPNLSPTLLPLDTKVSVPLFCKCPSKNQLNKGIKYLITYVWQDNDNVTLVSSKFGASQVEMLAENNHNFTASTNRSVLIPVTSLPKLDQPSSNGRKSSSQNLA
Protocol: as §2, §3, §4

Medicago NFP ectodomain = molecular target: T4, Medicago NFP ectodomain (Medicago truncatula, UniProt Q0GXS4); assay: Microscale thermophoresis (MST) binding of ligands to labelled NFP; settings: carbohydrate ligands
T4 construct: The Medicago truncatula NFP ectodomain (residues 28-246) was codon-optimized; AcMNPV gp67 signal peptide (replaces native signal peptide 1-27) (N); made in house; host or cells: Sf9 (Spodoptera frugiperda), baculovirus, secreted into medium
T4 sequence (Q0GXS4 28-246): T3 sequence (Q0GXS4 28-246)
Protocol: as §1, with “centrifugation.” for “centrifugation. This was followed by an overnight dialysis step against 50 mM Tris-HCl pH 8, 200 mM NaCl at 277 K. The NFP ectodomain was enriched by two subsequent steps of Ni-IMAC purification (HisTrap excel/HisTrap HP, both GE Healthcare). For crystallography experiments, N-glycans were removed using the endoglycosidase PNGase F (1:15 (w/w), room temperature, overnight). As a final purification step, NFP ectodomain was purified by SEC on a Superdex 200 10/300 or HiLoad Superdex 200 16/600 (both GE Healthcare) in phosphate buffered saline at pH 7.2 supplemented to a total of 500 mM NaCl (for binding assays) or 50 mM Tris-HCl, 200 mM NaCl (for crystallography). NFP ectodomain elutes as a single, homogeneous peak corresponding to a monomer.”

Compound	Kd [1]	Binding to HvRLK10 ectodomain (in words) [2]	Binding to NFP-ECD (in words) [3]	HvRLK10 ectodomain binding (BLI) (HvRLK10 ectodomain)	NFP-ECD binding (BLI) [4]	binding to NFP (MST) (Medicago NFP ectodomain)
CC(=O)N[C@H]1[C@H](O[C@H]2[C@H](O)[C@@H](NC(C)=O)[C@H](O[C@H]3[C@H](O)[C@@H](NC(C)=O)C(O)O[C@@H]3CO)O[C@@H]2CO)O[C@H](CO)[C@@H](O[C@@H]2O[C@H](CO)[C@@H](O[C@@H]3O[C@H](CO)[C@@H](O)[C@H](O)[C@H]3NC(C)=O)[C@H](O)[C@H]2NC(C)=O)[C@@H]1O (stereo partly drawn) [CO5]	93 µM	did not bind	did not bind; also recorded: does not bind	did not bind	did not bind; also recorded: does not bind	
maltohexaose						not able to bind
